From PubChem BioAssay (NCI)
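Cultured in 96-well plates, cells were exposed to test compound for 48 hours across five concentrations. TGI denotes the concentration required for complete inhibition of growth.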

Key:
Assay in all cases: NCI tumour cell line growth inhibition, 48 h
DU-145 prostate = tested on: DU-145 prostate
HT29 colon = tested on: HT29 colon
HCC-2998 colon = tested on: HCC-2998 colon
SF-268 CNS = tested on: SF-268 CNS
EKVX NSCLC = tested on: EKVX NSCLC
MALME-3M melanoma = tested on: MALME-3M melanoma
ACHN renal = tested on: ACHN renal
HCT-15 colon = tested on: HCT-15 colon
MDA-MB-435 = tested on: MDA-MB-435
UACC-257 melanoma = tested on: UACC-257 melanoma
OVCAR-3 ovarian = tested on: OVCAR-3 ovarian
SF-295 CNS = tested on: SF-295 CNS
CCRF-CEM leukemia = tested on: CCRF-CEM leukemia
RXF 393 renal = tested on: RXF 393 renal
LOX IMVI melanoma = tested on: LOX IMVI melanoma
HS 578T breast = tested on: HS 578T breast
SN12C renal = tested on: SN12C renal
KM12 colon = tested on: KM12 colon
T-47D breast = tested on: T-47D breast
CAKI-1 renal = tested on: CAKI-1 renal
UO-31 renal = tested on: UO-31 renal
M14 melanoma = tested on: M14 melanoma
MCF7 breast = tested on: MCF7 breast
TK-10 renal = tested on: TK-10 renal
IGROV1 ovarian = tested on: IGROV1 ovarian
NCI/ADR-RES ovarian = tested on: NCI/ADR-RES ovarian
BT-549 breast = tested on: BT-549 breast
NCI-H460 lung = tested on: NCI-H460 lung
MDA-MB-231 breast = tested on: MDA-MB-231 breast
U251 CNS = tested on: U251 CNS
SK-MEL-5 melanoma = tested on: SK-MEL-5 melanoma
A549 NSCLC = tested on: A549 NSCLC
SF-539 CNS = tested on: SF-539 CNS
NCI-H23 lung = tested on: NCI-H23 lung
OVCAR-5 ovarian = tested on: OVCAR-5 ovarian
SW-620 colon = tested on: SW-620 colon
SK-MEL-28 melanoma = tested on: SK-MEL-28 melanoma
SNB-19 CNS = tested on: SNB-19 CNS
HOP-62 NSCLC = tested on: HOP-62 NSCLC
K-562 leukemia = tested on: K-562 leukemia
786-0 renal = tested on: 786-0 renal
MDA-N = tested on: MDA-N
SK-MEL-2 melanoma = tested on: SK-MEL-2 melanoma
MOLT-4 leukemia = tested on: MOLT-4 leukemia
COLO 205 colon = tested on: COLO 205 colon
PC-3 prostate = tested on: PC-3 prostate
HCT-116 colon = tested on: HCT-116 colon
NCI-H522 lung = tested on: NCI-H522 lung
UACC-62 melanoma = tested on: UACC-62 melanoma
OVCAR-4 ovarian = tested on: OVCAR-4 ovarian
HOP-92 NSCLC = tested on: HOP-92 NSCLC
OVCAR-8 ovarian = tested on: OVCAR-8 ovarian
RPMI-8226 leukemia = tested on: RPMI-8226 leukemia
A498 renal = tested on: A498 renal
SK-OV-3 ovarian = tested on: SK-OV-3 ovarian
SR leukemia = tested on: SR leukemia
NCI-H226 lung = tested on: NCI-H226 lung
HL-60(TB) leukemia = tested on: HL-60(TB) leukemia

CC(=O)O[C@H]1C[C@](C)(O)[C@@]23CC([C@@H](OC(=O)C(C)(C)O)[C@@H](OC(C)=O)C2(COC(=O)c2ccccc2)[C@H]1OC(C)=O)C(C)(C)O3 (stereo partly specified)
TGI (DU-145 prostate): > 100 µM
TGI (HT29 colon): > 100 µM
TGI (HCC-2998 colon): > 100 µM
TGI (SF-268 CNS): > 100 µM
TGI (EKVX NSCLC): > 100 µM
TGI (MALME-3M melanoma): > 100 µM
TGI (ACHN renal): > 100 µM
TGI (HCT-15 colon): > 100 µM
TGI (MDA-MB-435): > 100 µM
TGI (UACC-257 melanoma): > 100 µM
TGI (OVCAR-3 ovarian): > 100 µM
TGI (SF-295 CNS): > 100 µM
TGI (CCRF-CEM leukemia): > 100 µM
TGI (RXF 393 renal): > 100 µM
TGI (LOX IMVI melanoma): > 100 µM
TGI (HS 578T breast): > 100 µM
TGI (SN12C renal): > 100 µM
TGI (KM12 colon): > 100 µM
TGI (T-47D breast): > 100 µM
TGI (CAKI-1 renal): > 100 µM
TGI (UO-31 renal): > 100 µM
TGI (M14 melanoma): > 100 µM
TGI (MCF7 breast): > 100 µM
TGI (TK-10 renal): > 100 µM
TGI (IGROV1 ovarian): > 100 µM
TGI (NCI/ADR-RES ovarian): > 100 µM
TGI (BT-549 breast): > 100 µM
TGI (NCI-H460 lung): > 100 µM
TGI (MDA-MB-231 breast): > 100 µM
TGI (U251 CNS): > 100 µM
TGI (SK-MEL-5 melanoma): > 100 µM
TGI (A549 NSCLC): > 100 µM
TGI (SF-539 CNS): > 100 µM
TGI (NCI-H23 lung): > 100 µM
TGI (OVCAR-5 ovarian): > 100 µM
TGI (SW-620 colon): > 100 µM
TGI (SK-MEL-28 melanoma): > 100 µM
TGI (SNB-19 CNS): > 100 µM
TGI (HOP-62 NSCLC): > 100 µM
TGI (K-562 leukemia): > 100 µM
TGI (786-0 renal): > 100 µM
TGI (MDA-N): > 100 µM
TGI (SK-MEL-2 melanoma): > 100 µM
TGI (MOLT-4 leukemia): > 100 µM
TGI (COLO 205 colon): > 100 µM
TGI (PC-3 prostate): > 100 µM
TGI (HCT-116 colon): > 100 µM
TGI (NCI-H522 lung): > 100 µM
TGI (UACC-62 melanoma): > 100 µM
TGI (OVCAR-4 ovarian): > 100 µM
TGI (HOP-92 NSCLC): > 100 µM
TGI (OVCAR-8 ovarian): > 100 µM
TGI (RPMI-8226 leukemia): > 100 µM
TGI (A498 renal): > 100 µM
TGI (SK-OV-3 ovarian): > 100 µM

CCOC(=O)C1=C(c2ccccc2)C12N(Cc1ccccc1)C(=O)C2(c1ccccc1)c1ccccc1 (stereo unspecified)
TGI (DU-145 prostate): > 100 µM
TGI (HT29 colon): > 100 µM
TGI (HCC-2998 colon): 90.3 µM
TGI (SF-268 CNS): > 100 µM
TGI (EKVX NSCLC): > 100 µM
TGI (MALME-3M melanoma): > 100 µM
TGI (SR leukemia): > 100 µM
TGI (ACHN renal): > 100 µM
TGI (HCT-15 colon): > 100 µM
TGI (MDA-MB-435): > 100 µM
TGI (UACC-257 melanoma): > 100 µM
TGI (OVCAR-3 ovarian): > 100 µM
TGI (SF-295 CNS): > 100 µM
TGI (CCRF-CEM leukemia): > 100 µM
TGI (RXF 393 renal): > 100 µM
TGI (LOX IMVI melanoma): > 100 µM
TGI (HS 578T breast): > 100 µM
TGI (SN12C renal): > 100 µM
TGI (KM12 colon): > 100 µM
TGI (T-47D breast): > 100 µM
TGI (UO-31 renal): > 100 µM
TGI (NCI-H226 lung): 95.4 µM
TGI (M14 melanoma): > 100 µM
TGI (MCF7 breast): > 100 µM
TGI (TK-10 renal): > 100 µM
TGI (IGROV1 ovarian): > 100 µM
TGI (BT-549 breast): > 100 µM
TGI (NCI-H460 lung): > 100 µM
TGI (MDA-MB-231 breast): > 100 µM
TGI (U251 CNS): > 100 µM
TGI (HL-60(TB) leukemia): > 100 µM
TGI (SF-539 CNS): > 100 µM
TGI (NCI-H23 lung): > 100 µM
TGI (OVCAR-5 ovarian): > 100 µM
TGI (SW-620 colon): > 100 µM
TGI (SK-MEL-28 melanoma): > 100 µM
TGI (SNB-19 CNS): > 100 µM
TGI (HOP-62 NSCLC): > 100 µM
TGI (K-562 leukemia): > 100 µM
TGI (MDA-N): > 100 µM
TGI (SK-MEL-2 melanoma): 80 µM
TGI (MOLT-4 leukemia): > 100 µM
TGI (COLO 205 colon): 60.1 µM
TGI (PC-3 prostate): 75.5 µM
TGI (HCT-116 colon): > 100 µM
TGI (NCI-H522 lung): 75.2 µM
TGI (UACC-62 melanoma): > 100 µM
TGI (HOP-92 NSCLC): 87.5 µM
TGI (RPMI-8226 leukemia): > 100 µM
TGI (A498 renal): 90.9 µM
TGI (SK-OV-3 ovarian): > 100 µM
